Results as given in publication PMC9186373, “Design, synthesis, and biological evaluation of novel carbazole derivatives as potent DNMT1 inhibitors with reasonable PK properties” (Journal of Enzyme Inhibition and Medicinal Chemistry, 2022).

Columns and labels:
[1] = system: human DNMT1; test: ELISA EpiQuik DNA methyltransferase (DNMT) activity/inhibitor assay; assay type: biochemical; conditions: for Inh% at 50 μM: 50 μM compound; for Inh% at 50 μM / Inh% at 100 μM: 200 nM purified DNMT1, EpiQuik kit; for Inh% at 100 μM: 100 μM compound; for DNMT1 inhibitory activity: SAR discussion of Table 1
Protocol: All the compounds were first screened using an ELISA EpiQuik DNA methyltransferase (DNMT) activity/inhibitor assay kit (Epigentek). To measure the effects of the compounds on human DNMT1 activity, 200 nM purified DNMT1 was incubated with 50 µM and 100 µM of the different compounds and S-adenosylmethionine in the DNMT assay buffer in the assay plate at 37 °C for 2 h[36]. Next, every sample was incubated with the capture and detection antibody, followed by incubation with developer solution for 10 min at room temperature. The absorbance was measured at 450 nm using a POLARstar Omega microplate reader (BMG). S-Adenosylhomocysteine (AdoHcy) was used as a positive control. Methylation inhibition assays for EZH2, LSD, and G9a were performed in modified Tris, pH 9.0, buffer using AlphaLisa technology. An amount of 10 µL of the reaction system contained a corresponding concentration of SAM (Sigma) (EZH2 50 µM, LSD 50 µM, and G9a 50 µM), which was the Km value in each enzymatic reaction, plus 100 nM biotinylated peptide H3 (1–21) (synthesis by GLChina) and the relevant enzyme concentration (0.03 nM EZH2, 0.03 nM LSD, and 0.03 nM G9a). The proteins were preincubated with various compound concentrations for 15 min at room temperature before the substrate and SAM were added. After 60 min of incubation at room temperature, acceptor and donor AlphaLisa beads were added according to the manufacturer’s recommendations. The signals were read in Alpha mode with an EnSpire multimode plate reader (PerkinElmer). IC50 values were derived by fitting the data for the inhibition percentage to a dose-response curve by non-linear regression in GraphPad Prism 5.0[20].
DNMT1 inhibition test was performed on 30 candidates to verify their biochemical activities. The EpiQuik DNA methyl-transferase (DNMT) activity/inhibitor assay kit (Epigentek) was used to identify the activity of synthetic compounds.

[2] = molecular target: DNMT1 (Homo sapiens, UniProt P26358); test: H3-labelled radioactive methylation assay; assay type: biochemical; conditions: H3-labeled radioactive methylation assay; 40 nM DNMT1
Protocol: The DNMT1 radioactive methylation inhibition assays were performed in 30 µL reactions containing 0.1 µM adenosyl-L-methionine S-[methyl-^3H] (^3H-SAM, ^15 Ci/mmol, PerkinElmer), 0.25 µg/mL poly (dI-dC)·poly (dI-dC) (Sigma), 40 nM DNMT1 in 50 mM Tris-HCl, pH 8.0, 1 mM DTT, 5% glycerol, and 100 µg/mL BSA. The proteins were preincubated with a range of compound concentrations for 15 min at room temperature before adding the substrate and [^3H] SAM. After 60 min of incubation at 37 °C, the reaction systems were transferred to a MultiScreen HTS filter plate (Millipore), and the plate was washed 3 times with doubly distilled H2O via a vacuum. The radioactivity was determined by liquid scintillation counting (MicroBeta, PerkinElmer). IC50 values were derived by fitting the data for the inhibition percentage to a dose-response curve by non-linear regression in GraphPad Prism 5.0.
To quantitatively analyse DNMT1 inhibitory effect, the H^3-labelled radioactive methylation assay was conducted to measure the methyltransferase activity of DNMT1 at a range of concentrations for these compounds.

[3] = PK study in SD rats; assay type: in vivo; conditions: rat, plasma, SD male rats; for AUC(0-t) / Tmax / half-life: mean ± SD (n = 3)
Protocol: In vivo pharmacokinetic properties of WK-22, WK-23, WK-27, and DC_517 were performed by Medicilon Company, Shanghai, China. SPF-grade SD male rats (8 groups, n = 3 rats per group) with a body weight of 230–260 g were purchased from Shanghai SIPPR-BK LAB Animal Ltd., Shanghai, China, and used for the pharmacokinetic analysis of the tested compounds. All animals were deprived of food overnight after the cannulation surgery. Subsequently, the tested compounds WK-23 and DC_517 were dissolved/suspended in 5% DMSO, 10% Solutol, and 85% water, and the tested compounds WK-22 and WK-27 were dissolved/suspended in 5% DMSO, 40% PEG400, and 55% saline for intravenous administration (i.v.) and oral administration (p.o.), respectively. A final dosage of 2.0 and 10.0 mg/kg rat of the formulated compounds was administered for i.v. and p.o. purposes, respectively, and the blood samples were taken at various time points during a 24 h period. At different time points, blood samples were collected from the femoral vein. The plasma samples were obtained after centrifugation (6800 g, 6 min, 2–8 °C) and stored at −80 °C until the assay. The AUC (area under concentration-time curve) was calculated through the trapezoidal rule with extrapolation to time infinity. The concentration of the compounds in the blood was analysed by LC-MS/MS (Shimadzu liquid chromatographic system and SCIEX Triple Quad 5500+ mass spectrometer, Applied Biosystems, Ontario, Canada). The Tmax, T1/2, and Cmax value was obtained through visual inspection of the plasma concentration-time curve. The Vss value was generated from DAS 3.2.8 software. The F value of WK-23 was calculated with the formula: F = (AUC p.o. × Dose i.v.)/(AUC i.v. × Dose p.o.) × 100%.

Chain of DNMT1 (P26358 whole entry): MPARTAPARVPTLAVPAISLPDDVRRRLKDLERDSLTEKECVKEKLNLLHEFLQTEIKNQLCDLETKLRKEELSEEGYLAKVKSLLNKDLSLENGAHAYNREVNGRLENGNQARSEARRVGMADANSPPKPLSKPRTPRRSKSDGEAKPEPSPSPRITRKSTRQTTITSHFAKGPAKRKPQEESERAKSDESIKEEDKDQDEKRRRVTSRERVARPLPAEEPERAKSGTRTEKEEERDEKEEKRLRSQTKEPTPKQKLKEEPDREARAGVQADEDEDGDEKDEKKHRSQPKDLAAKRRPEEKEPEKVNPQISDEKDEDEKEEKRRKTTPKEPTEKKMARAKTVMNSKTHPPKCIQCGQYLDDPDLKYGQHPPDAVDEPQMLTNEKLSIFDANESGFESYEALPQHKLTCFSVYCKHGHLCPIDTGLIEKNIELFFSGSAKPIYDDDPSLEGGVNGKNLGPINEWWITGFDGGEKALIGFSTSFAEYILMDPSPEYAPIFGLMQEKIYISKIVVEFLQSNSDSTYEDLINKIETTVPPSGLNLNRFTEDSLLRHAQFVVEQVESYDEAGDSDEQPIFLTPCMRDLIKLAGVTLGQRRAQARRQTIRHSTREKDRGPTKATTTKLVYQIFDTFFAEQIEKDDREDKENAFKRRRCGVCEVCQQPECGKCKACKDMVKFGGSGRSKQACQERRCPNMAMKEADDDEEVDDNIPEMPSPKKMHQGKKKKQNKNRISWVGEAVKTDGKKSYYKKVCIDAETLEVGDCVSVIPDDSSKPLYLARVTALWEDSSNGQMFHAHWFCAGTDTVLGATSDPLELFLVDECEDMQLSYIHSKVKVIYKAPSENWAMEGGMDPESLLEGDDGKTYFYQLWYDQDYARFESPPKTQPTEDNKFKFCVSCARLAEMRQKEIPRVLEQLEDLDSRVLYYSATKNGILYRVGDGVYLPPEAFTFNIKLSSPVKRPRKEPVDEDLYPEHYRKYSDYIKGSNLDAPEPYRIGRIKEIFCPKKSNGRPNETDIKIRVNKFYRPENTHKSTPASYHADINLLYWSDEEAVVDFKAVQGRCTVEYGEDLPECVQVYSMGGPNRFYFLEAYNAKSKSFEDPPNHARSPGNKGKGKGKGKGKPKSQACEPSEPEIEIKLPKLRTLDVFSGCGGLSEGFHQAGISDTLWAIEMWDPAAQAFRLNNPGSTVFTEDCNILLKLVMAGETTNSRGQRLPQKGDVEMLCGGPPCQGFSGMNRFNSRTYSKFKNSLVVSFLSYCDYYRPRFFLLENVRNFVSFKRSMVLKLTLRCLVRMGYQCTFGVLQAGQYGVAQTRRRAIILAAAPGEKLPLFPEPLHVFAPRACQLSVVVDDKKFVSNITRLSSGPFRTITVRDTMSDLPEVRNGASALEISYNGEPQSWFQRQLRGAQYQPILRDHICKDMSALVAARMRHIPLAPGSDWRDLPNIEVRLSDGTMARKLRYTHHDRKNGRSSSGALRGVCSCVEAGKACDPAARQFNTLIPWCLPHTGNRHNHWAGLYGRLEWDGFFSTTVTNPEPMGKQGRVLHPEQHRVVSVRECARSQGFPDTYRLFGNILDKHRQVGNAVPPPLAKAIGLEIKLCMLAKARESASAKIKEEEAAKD

Row | SMILES | melting point | Inh% at 50 μM [1] | Inh% at 100 μM [1] | also measured
1 | OC(CNCCc1c[nH]c2ccccc12)Cn1c2ccccc2c2ccccc21 (centres unmarked) [DC_05, reference compound] | – | 43% | 88% | IC50 [2]: 52 µM
2 | OC(CNCc1ccc(F)cc1)Cn1c2ccccc2c2cc(F)ccc21 (centres unmarked) [WK-9, 1-(3-Fluoro-9H-carbazol-9-yl)-3-((4-fluorobenzyl)amino)propan-2-ol] | 130 to 132 °C | 25% | 53% | –
3 | OC(CNCCc1ccccc1)Cn1c2ccc(F)cc2c2cc(F)ccc21 (centres unmarked) [WK-15, 1-(3,6-Difluoro-9H-carbazol-9-yl)-3-(phenethylamino)propan-2-ol] | 91 to 93 °C | 75% | 82% | IC50 [2]: 7.7 µM
4 | CCCCOCCCNCC(O)Cn1c2ccccc2c2cc(F)ccc21 (centres unmarked) [WK-5, 1-((3-Butoxypropyl)amino)-3-(3-fluoro-9H-carbazol-9-yl)propan-2-ol] | 71 to 73 °C | 59% | 65% | –
5 | OC(CNCCc1c[nH]c2ccccc12)Cn1c2ccccc2c2ccncc21 (centres unmarked) [WK-20, 1-((2-(1H-indol-3-yl)ethyl)amino)-3-(9H-pyrido[3,4-b]indol-9-yl)propan-2-ol] | 85 to 87 °C | 68% | 77% | –
6 | CC(C)(C)OC(=O)N1CCN(CC(O)COC(Cn2c3ccccc3c3cc(F)ccc32)Cn2c3ccc(F)cc3c3cc(F)ccc32)C[C@@H]1CO (stereo partly drawn) [WK-26, (2R)-tert-butyl 4-(3-((1-(3,6-difluoro-9H-carbazol-9-yl)-3-(3-fluoro-9H-carbazol-9-yl)propan-2-yl)oxy)-2-hydroxypropyl)-2-(hydroxymethyl)piperazine-1-carboxylate] | 74 to 76 °C | 8.7% | −16% | DNMT1 inhibitory activity [1]: lost its activity
7 | OC(CNCCc1c[nH]c2ccccc12)COC(Cn1c2ccccc2c2ccccc21)Cn1c2ccccc2c2ccccc21 (centres unmarked) [DC_517, reference compound] | – | 96% | 98% | AUC(0-t) ([3]; iv, i.v. (2 mg/kg)): 1.02 ± 0.0609 µg·h/mL; Tmax ([3]; iv, i.v. (2 mg/kg)): 0.08 h; half-life ([3]; iv, i.v. (2 mg/kg)): 6.7 ± 0.2 h; bioavailability ([3]; po, p.o. 10 mg/kg vs i.v. 2 mg/kg, F = (AUC p.o. × Dose i.v.)/(AUC i.v. × Dose p.o.) × 100%): 38.7 ± 2.9%; AUC(0-t) ([3]; po, p.o. (10 mg/kg)): 2.08 ± 0.113 µg·h/mL; Tmax ([3]; po, p.o. (10 mg/kg)): 6 h; half-life ([3]; po, p.o. (10 mg/kg)): 6.7 ± 0.9 h; IC50 [2]: 2.3 µM
8 | CCCCOCCCNCC(O)COC(Cn1c2ccccc2c2cc(F)ccc21)Cn1c2ccc(F)cc2c2cc(F)ccc21 (centres unmarked) [WK-29, 1-((3-Butoxypropyl)amino)-3-((1-(3,6-difluoro-9H-carbazol-9-yl)-3-(3-fluoro-9H-carbazol-9-yl)propan-2-yl)oxy)propan-2-ol] | 151 to 153 °C | 85% | 80% | –
9 | CCCCOCCCNCC(O)Cn1c2ccc(F)cc2c2cc(F)ccc21 (centres unmarked) [WK-17, 1-((3-butoxypropyl)amino)-3-(3,6-difluoro-9H-carbazol-9-yl)propan-2-ol] | 94 to 96 °C | 73% | 79% | –
10 | CC(C)(C)OC(=O)N1CCN(CC(O)Cn2c3ccccc3c3cc(F)ccc32)C[C@H]1CO (stereo partly drawn) [WK-10, (2S)-tert-butyl 4-(3-(3-fluoro-9H-carbazol-9-yl)-2-hydroxypropyl)-2-(hydroxymethyl)piperazine-1-carboxylate] | 71 to 73 °C | 5.1% | −9.0% | –
11 | C[C@@H](CNCC(O)Cn1c2ccccc2c2cc(F)ccc21)c1ccccc1 (stereo partly drawn) [WK-8, 1-(3-Fluoro-9H-carbazol-9-yl)-3-(((R)-2-phenylpropyl)amino)propan-2-ol] | 100 to 102 °C | 16% | 58% | –

Now from value to compound, other results behind:

Row | melting point | Inh% at 50 μM [1] | Inh% at 100 μM [1] | SMILES | also measured
12 | 55 to 57 °C | 56% | 60% | COc1ccccc1OCCNCC(O)Cn1c2ccccc2c2cc(F)ccc21 (centres unmarked) [WK-4, 1-(3-fluoro-9H-carbazol-9-yl)-3-((2-(2-methoxyphenoxy)ethyl)amino) propan-2-ol] | –
13 | 35 to 37 °C | 41% | 50% | OC[C@@H]1CN(CC(O)Cn2c3ccccc3c3cc(F)ccc32)CCN1 (stereo partly drawn) [WK-11, 1-(3-Fluoro-9H-carbazol-9-yl)-3-((S)-3-(hydroxymethyl)piperazin-1-yl)propan-2-ol] | –
14 | 119 to 121 °C | 67% | 83% | CC(CO)NCC(O)Cn1c2ccccc2c2cc(F)ccc21 (centres unmarked) [WK-7, 2-((3-(3-Fluoro-9H-carbazol-9-yl)-2-hydroxypropyl)amino)propan-1-ol] | IC50 [2]: 9.6 µM
15 | 107 to 109 °C | 39% | 34% | OC(CNCCc1c[nH]c2ccccc12)Cn1c2ccccc2c2cccnc21 (centres unmarked) [WK-21, 1-((2-(1H-indol-3-yl)ethyl)amino)-3-(9H-pyrido[2,3-b]indol-9-yl)propan-2-ol] | –
16 | 118 to 120 °C | 68% | 79% | CC(O)CNCC(O)Cn1c2ccccc2c2cc(F)ccc21 (centres unmarked) [WK-6, 1-(3-Fluoro-9H-carbazol-9-yl)-3-((2-hydroxypropyl)amino)propan-2-ol] | –
17 | 113 to 115 °C | 91% | 91% | OC(CNCCc1c[nH]c2ccccc12)COC(Cn1c2ccccc2c2cc(F)ccc21)Cn1c2ccc(F)cc2c2cc(F)ccc21 (centres unmarked) [WK-28, 1-((2-(1H-indol-3-yl)ethyl)amino)-3-((1-(3,6-difluoro-9H-carbazol-9-yl)-3-(3-fluoro-9H-carbazol-9-yl)propan-2-yl)oxy)propan-2-ol] | –
18 | 57 to 59 °C | 2.3% | 2.6% | OC(CNC1CC1)COC(Cn1c2ccccc2c2cc(F)ccc21)Cn1c2ccccc2c2cc(F)ccc21 (centres unmarked) [WK-24, 1-((1,3-Bis(3-fluoro-9H-carbazol-9-yl)propan-2-yl)oxy)-3-(cyclopropylamino)propan-2-ol] | DNMT1 inhibitory activity [1]: inactive
19 | 109 to 111 °C | 55% | 66% | OC(CNCCc1ccc(F)cc1)Cn1c2ccccc2c2cc(F)ccc21 (centres unmarked) [WK-2, 1-(3-Fluoro-9H-carbazol-9-yl)-3-((4-fluorophenethyl)amino)propan-2-ol] | –
20 | 93 to 95 °C | 27% | 46% | COc1ccccc1OCCNCC(O)Cn1c2ccc(F)cc2c2cc(F)ccc21 (centres unmarked) [WK-16, 1-(3,6-Difluoro-9H-carbazol-9-yl)-3-((2-(2-methoxyphenoxy)ethyl)amino) propan-2-ol] | –
